# Assay results: patent US20250281606A1 (AKSEERA PHARMA CORP., priority 2020, published 2025)
# Several values for one entry are separate records, joined by “and”; a condition that tells them apart may be missing. Equal values may be shown once. Read-outs that look alike come from different tables or passages of the source.
# Assays:
# [1] = tested on: IgG and IgM antibody titres (serum); assay type: in vivo, Balb/c mice
# [2] = tested on: IgG and IgM antibody titres (serum); assay: IgG and IgM antibody titres in mice vaccinated with Covishield, with or without oral CBD; conditions: for IgG, serum (CLIA, EIA) / IgM, serum (CLIA, EIA): individual mice (F/M); for augmentation of overall IgG response to vaccine by CBD / augmentation of overall IgM response to vaccine by CBD: CBD throughout or until vaccination, same magnitude, vs vaccine alone; for time after vaccine by which IgG and IgM responses were significantly elevated compared to mice not given CBD: CBD throughout the study or just until vaccine
# [3] = 0 Day, group GII (CS): Covishild + CBD 102.5 mg/kg/d gavage day -7 to 28
# [4] = 0 Day, group GIII (CS): Covishild + CBD 102.5 mg/kg/d gavage day -7 to 0, then discontinued
# [5] = 7th Day, group GII (CS): Covishild + CBD 102.5 mg/kg/d gavage day -7 to 28
# [6] = 7th Day, group GIII (CS): Covishild + CBD 102.5 mg/kg/d gavage day -7 to 0, then discontinued
# [7] = 14 Day, group GII (CS): Covishild + CBD 102.5 mg/kg/d gavage day -7 to 28
# [8] = 14 Day, group GIII (CS): Covishild + CBD 102.5 mg/kg/d gavage day -7 to 0, then discontinued
structure (smiles),measurement,setting,value
"C=C(C)[C@@H]1CCC(C)=C[C@H]1c1c(O)cc(CCCCC)cc1O [CBD Formulation, Cannabidiol]","IgG, serum (CLIA, EIA)",[1]; 0 Day,7.4 IU/mL and 6.8 IU/mL and 7.2 IU/mL and 7.1 IU/mL and 9.2 IU/mL and 7.5 IU/mL and 8.21 IU/mL
same,"IgG, serum (CLIA, EIA)",[1]; 14 Day,7.2 IU/mL and 6.4 IU/mL and 7.1 IU/mL and 7.4 IU/mL and 6 IU/mL and 9.1 IU/mL and 7 IU/mL and 7.3 IU/mL
same,"IgM, serum (CLIA, EIA)",[1]; 14 Day,9.3 AU/mL and 9.8 AU/mL and 10.2 AU/mL and 10.3 AU/mL and 9 AU/mL and 10.4 AU/mL and 9.2 AU/mL
same,"IgG, serum (CLIA, EIA)",[1]; 21 Day,7.3 IU/mL and 7.1 IU/mL and 7.5 IU/mL and 7.2 IU/mL and 9.1 IU/mL and 7 IU/mL and 7.4 IU/mL
same,"IgG, serum (CLIA, EIA)","[1]; mouse, in vivo",7.2 IU/mL and 7.1 IU/mL and 7.3 IU/mL and 6.9 IU/mL and 9.2 IU/mL and 7.5 IU/mL and 8.21 IU/mL
same,"IgM, serum (CLIA, EIA)","[1]; mouse, in vivo",10.2 AU/mL and 9.8 AU/mL and 10 AU/mL and 10.1 AU/mL and 10.3 AU/mL
same,augmentation by CBD of the response to Covaxin compared with Covishield,"[1]; mouse, in vivo",tended to be less
same,day at which a rise in IgM was seen,"[1]; mouse, in vivo",7 days
same,day at which a significant rise in IgG and IgM was apparent,"[1]; mouse, in vivo",7 days
same,day by which a rise in IgG was seen,"[1]; mouse, in vivo",≤ 14 days
same,overall IgM response to Covaxin versus Covaxin alone,"[1]; mouse, in vivo",augmented
same,"IgG, serum (CLIA, EIA)",[2]; [3],7.4 IU/mL and 7.8 IU/mL and 7.1 IU/mL (2×) and 6.8 IU/mL and 6.4 IU/mL
same,"IgM, serum (CLIA, EIA)",[2]; [3],9.2 AU/mL (2×) and 8.2 AU/mL and 10.1 AU/mL and 9.4 AU/mL and 8.8 AU/mL
same,"IgG, serum (CLIA, EIA)",[2]; [4],7.5 IU/mL and 6.8 IU/mL (2×) and 6.5 IU/mL and 7.21 IU/mL and 7.2 IU/mL
same,"IgM, serum (CLIA, EIA)",[2]; [4],9.4 AU/mL and 9.3 AU/mL (3×) and 9.2 AU/mL and 9.1 AU/mL
same,"IgG, serum (CLIA, EIA)",[2]; [5],7.4 IU/mL and 7.5 IU/mL and 8.2 IU/mL and 7.3 IU/mL (2×) and 7.8 IU/mL
same,"IgM, serum (CLIA, EIA)",[2]; [5],10.2 AU/mL and 8.2 AU/mL and 10.11 AU/mL and 10.5 AU/mL and 10.4 AU/mL
same,"IgG, serum (CLIA, EIA)",[2]; [6],7.4 IU/mL and 6.9 IU/mL and 7.3 IU/mL (2×) and 7.2 IU/mL and 7.1 IU/mL
same,"IgM, serum (CLIA, EIA)",[2]; [6],9.2 AU/mL and 9.6 AU/mL and 10.1 AU/mL and 10.2 AU/mL and 10.3 AU/mL
same,"IgG, serum (CLIA, EIA)",[2]; [7],7.5 IU/mL and 7.8 IU/mL (3×) and 7.6 IU/mL and 8.2 IU/mL
same,"IgM, serum (CLIA, EIA)",[2]; [7],10.5 AU/mL and 10.15 AU/mL and 10.52 AU/mL
same,"IgG, serum (CLIA, EIA)",[2]; [8],7.5 IU/mL (2×) and 7.6 IU/mL and 7.3 IU/mL and 7.8 IU/mL and 7.9 IU/mL
same,"IgM, serum (CLIA, EIA)",[2]; [8],10.1 AU/mL and 10.5 AU/mL and 10.3 AU/mL (2×)
same,"IgG, serum (CLIA, EIA)","[2]; 21 Day, group GII (CS): Covishild + CBD 102.5 mg/kg/d gavage day -7 to 28",7.8 IU/mL (2×) and 7.1 IU/mL and 7.5 IU/mL and 7.9 IU/mL and 8.1 IU/mL
same,"IgG, serum (CLIA, EIA)","[2]; 21 Day, group GIII (CS): Covishild + CBD 102.5 mg/kg/d gavage day -7 to 0, then discontinued",7.6 IU/mL (2×) and 8.1 IU/mL (3×) and 7.8 IU/mL
same,augmentation of overall IgG response to vaccine by CBD,"[2]; FIG. 2C, average overall response over 28 days",15%
same,augmentation of overall IgM response to vaccine by CBD,"[2]; FIG. 2D, average overall response over 28 days",25%
same,augmentation of overall IgG response to vaccine by CBD,"[2]; FIG. 2I, AUC over 28 days, female mice",13%
same,augmentation of overall IgM response to vaccine by CBD,"[2]; FIG. 2J, AUC over 28 days, female mice",21%
same,time after vaccine by which IgG and IgM responses were significantly elevated compared to mice not given CBD,[2]; FIGS. 2E and 2F,≤ 7 days
same,IgG response at day 7 versus vehicle (no CBD) group,"[2]; FIGS. 2K and 2L, female mice, CBD given throughout the trial",significantly better IgG response
same,time after vaccine by which IgG and IgM responses were significantly elevated compared to mice not given CBD,"[2]; FIGS. 2K and 2L, female mice",≤ 14 days
same,course of antibody titres in mice given vaccine plus CBD,"[2]; compared with vaccine without CBD, whose titres did not rise, up to day 28",rose and remained elevated until day 28
